Test [1] addresses α4β7 (Homo sapiens, UniProt P13612+P26010). The test can be described thus: PBMC Memory T Cell Adhesion Assay, adhesion to MAdCAM-1. Type of test: cell-based. As for the experimental part:
Fresh CD4+/CD45RO+ memory T cells were isolated from human peripheral blood mononuclear cell (PBMC) donors by Aragen Bioscience Inc. (Morgan Hill, Calif.). The assay plate was prepared using IgG Fc capture antibody (donkey anti human) immobilized at 500 ng/well in 50 mM sodium bicarbonate buffer, pH 9.5, ON, 4C onto a Greiner Fluotrac plate (100 ul per well). The plate was rinsed two time with Blocking Buffer (25 mM Tris HCl, pH7.5, 150 mM NaCl, 1.5% BSA, 0.05% Tween), and blocked with Blocking Buffer for 2 hours at 37 C or 5 hours at RT using 200 ul per well. The Blocking Buffer was removed and either MAdCAM-1 or VCAM-1 at 400 ng/well in Blocking Buffer was added and the plate incubated overnight at 4C (100 ul per well). The plate was washed two times with Blocking Buffer, and rinsed once with 200 ul Binding Media (DMEM phenol red free, 10 mM HEPES, 1×Na pyruvate, 1× Glutamine, and supplemented with 1 mM MnCl2 prior to use). To prepare cells, approximately 25 million CD4+/CD45RO+ memory T cells were counted by trypan blue exclusion using a haemocytometer to determine viability and cell count. The cells were transferred to a 50 ml conical tube, and centrifuged at 1200 rpm for 10 minute. The media was aspirated and the cell pellet resuspended in 15 ml Binding Media. The cells were centrifuged again and resuspended in the appropriate amount of Binding Media to be used for assays (50 ul of cells per well at 2× the final density). To each well, and equal volume (50 ul) of test compound was added and the plate was incubated for 1.5 hours at 37 C, 5% CO2. Each well was rinsed 3× with 150 ul per well of Binding Media. […] The plate was incubated at 37 C, 5% CO2, for 45 minutes. The plate was protected from light by using black adhesive seals. Fluorescence intensity was measured using a Molecular Devices Gemini EM Fluorescent Plate Reader (Ex 485/Em530, Bottom Read, Reading Sensitivity=20). IC50 curves are generated using Graph Pad Prism and the curves analyzed using analyzed using a non-linear regression (four parameters) algorithm. The log (concentration) versus RFU (Ex485/Em530) was plotted to determine IC50 values.

Test [2] concerns the target T1, α4β7 (Mus musculus, UniProt P26011+Q00651).
T1 construct: host or cells: TK1 mouse T cells
The test can be described thus: α4β7 Cell Adhesion Assay (Mouse), TK1 cells. The test is classed as cell-based. In short, it runs like this:
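Mouse TK1 cells in DMEM with 0.1% BSA, 10 mM HEPES pH 7 and 1 mM MnCl2 were allowed to adhere for 30-45 min at 37 °C to plates coated with recombinant human MAdCAM-1 Fc (200 ng/well) in the presence of serially diluted peptides. Adherent cells were quantified by MTT absorbance at 570 nm, with no-cell background subtracted for dose response.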

Where [3] appears, read: Table 3-B, range classes, read-out: PBMC IC50.

Like-named read-outs stand apart in the source and are kept apart here. Numbered stars: 1 amine (or outer) side, 2 acyl side, 3 side chain; on linkers, the order of the positions; unused ones are H or OH. Bridge positions count the residues as written; N and C are the ends. Square brackets hold non-standard residues; d marks the D form. Peptide text beside a SMILES is read from it. I, II: the chains in the order shown. ξ: configuration not given here. Phe(4-COOH) = N[C@@H](Cc1ccc(C(=O)O)cc1)C(=O)O; Phe(4-tBu) = CC(C)(C)c1ccc(C[C@H](N)C(=O)O)cc1; 1Nal = N[C@@H](Cc1cccc2ccccc12)C(=O)O; Diglycolyl = O=C(COCC(=O)[*:2])[*:1]; NMeR = CN[C@@H](CCCNC(=N)N)C(=O)O; β3hE = N[C@@H](CCC(=O)O)CC(=O)O; Thr(3ξ) = CC(O)[C@H](N)C(=O)O; NMeK = CN[C@@H](CCCCN)C(=O)O; Pen = CC(C)(S)[C@H](N)C(=O)O

A word on the IC50: it is the concentration at which inhibition is half-maximal.

T1 sequence (Q00651 34-1039 limits assumed): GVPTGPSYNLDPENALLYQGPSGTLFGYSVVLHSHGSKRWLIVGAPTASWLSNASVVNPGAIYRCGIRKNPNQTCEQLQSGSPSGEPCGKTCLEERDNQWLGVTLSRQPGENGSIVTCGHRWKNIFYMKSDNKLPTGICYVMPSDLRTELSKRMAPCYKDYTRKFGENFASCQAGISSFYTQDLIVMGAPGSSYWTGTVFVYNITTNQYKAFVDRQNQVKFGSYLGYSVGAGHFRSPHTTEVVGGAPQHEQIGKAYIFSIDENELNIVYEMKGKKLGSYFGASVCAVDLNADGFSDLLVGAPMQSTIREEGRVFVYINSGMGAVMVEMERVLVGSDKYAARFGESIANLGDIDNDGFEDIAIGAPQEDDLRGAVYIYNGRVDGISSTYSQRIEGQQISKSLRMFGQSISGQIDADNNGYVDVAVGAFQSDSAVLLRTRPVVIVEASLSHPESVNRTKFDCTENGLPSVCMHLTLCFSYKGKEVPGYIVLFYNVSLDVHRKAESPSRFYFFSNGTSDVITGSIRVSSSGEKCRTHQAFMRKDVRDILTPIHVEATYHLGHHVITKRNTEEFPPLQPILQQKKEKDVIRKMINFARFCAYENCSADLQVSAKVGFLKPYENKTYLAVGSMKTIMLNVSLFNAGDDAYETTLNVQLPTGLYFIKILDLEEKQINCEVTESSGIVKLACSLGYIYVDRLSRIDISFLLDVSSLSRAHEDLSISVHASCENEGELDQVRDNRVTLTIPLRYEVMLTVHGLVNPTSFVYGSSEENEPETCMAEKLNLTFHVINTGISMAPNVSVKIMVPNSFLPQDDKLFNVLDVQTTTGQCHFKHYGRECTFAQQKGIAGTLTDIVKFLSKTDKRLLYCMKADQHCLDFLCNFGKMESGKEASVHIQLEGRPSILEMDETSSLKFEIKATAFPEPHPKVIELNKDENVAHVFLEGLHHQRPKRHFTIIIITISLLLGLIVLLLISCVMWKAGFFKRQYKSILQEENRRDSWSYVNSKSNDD
T1 sequence (P26011 20-806): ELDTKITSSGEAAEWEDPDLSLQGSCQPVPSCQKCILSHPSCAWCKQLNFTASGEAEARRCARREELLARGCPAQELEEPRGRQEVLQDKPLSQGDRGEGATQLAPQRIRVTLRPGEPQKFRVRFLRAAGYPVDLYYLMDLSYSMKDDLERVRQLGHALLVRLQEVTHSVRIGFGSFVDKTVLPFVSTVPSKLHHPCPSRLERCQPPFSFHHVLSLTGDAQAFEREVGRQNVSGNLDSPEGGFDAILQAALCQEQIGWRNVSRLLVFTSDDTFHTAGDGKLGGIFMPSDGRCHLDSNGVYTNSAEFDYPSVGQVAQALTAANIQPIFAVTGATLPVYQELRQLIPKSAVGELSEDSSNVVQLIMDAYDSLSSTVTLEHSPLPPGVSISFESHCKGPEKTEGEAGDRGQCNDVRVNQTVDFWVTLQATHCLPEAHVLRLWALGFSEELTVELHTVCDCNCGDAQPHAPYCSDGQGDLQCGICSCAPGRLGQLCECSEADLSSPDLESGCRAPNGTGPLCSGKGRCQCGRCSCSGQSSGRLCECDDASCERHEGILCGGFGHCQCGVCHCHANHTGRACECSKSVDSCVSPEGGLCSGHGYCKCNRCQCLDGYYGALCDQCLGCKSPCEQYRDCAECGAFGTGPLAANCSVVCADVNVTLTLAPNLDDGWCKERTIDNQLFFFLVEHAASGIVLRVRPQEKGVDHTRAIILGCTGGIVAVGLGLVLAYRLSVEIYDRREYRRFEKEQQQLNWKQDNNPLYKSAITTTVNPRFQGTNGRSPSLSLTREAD
α4β7 (Homo sapiens, UniProt P13612+P26010), sequence (P13612 34-1032): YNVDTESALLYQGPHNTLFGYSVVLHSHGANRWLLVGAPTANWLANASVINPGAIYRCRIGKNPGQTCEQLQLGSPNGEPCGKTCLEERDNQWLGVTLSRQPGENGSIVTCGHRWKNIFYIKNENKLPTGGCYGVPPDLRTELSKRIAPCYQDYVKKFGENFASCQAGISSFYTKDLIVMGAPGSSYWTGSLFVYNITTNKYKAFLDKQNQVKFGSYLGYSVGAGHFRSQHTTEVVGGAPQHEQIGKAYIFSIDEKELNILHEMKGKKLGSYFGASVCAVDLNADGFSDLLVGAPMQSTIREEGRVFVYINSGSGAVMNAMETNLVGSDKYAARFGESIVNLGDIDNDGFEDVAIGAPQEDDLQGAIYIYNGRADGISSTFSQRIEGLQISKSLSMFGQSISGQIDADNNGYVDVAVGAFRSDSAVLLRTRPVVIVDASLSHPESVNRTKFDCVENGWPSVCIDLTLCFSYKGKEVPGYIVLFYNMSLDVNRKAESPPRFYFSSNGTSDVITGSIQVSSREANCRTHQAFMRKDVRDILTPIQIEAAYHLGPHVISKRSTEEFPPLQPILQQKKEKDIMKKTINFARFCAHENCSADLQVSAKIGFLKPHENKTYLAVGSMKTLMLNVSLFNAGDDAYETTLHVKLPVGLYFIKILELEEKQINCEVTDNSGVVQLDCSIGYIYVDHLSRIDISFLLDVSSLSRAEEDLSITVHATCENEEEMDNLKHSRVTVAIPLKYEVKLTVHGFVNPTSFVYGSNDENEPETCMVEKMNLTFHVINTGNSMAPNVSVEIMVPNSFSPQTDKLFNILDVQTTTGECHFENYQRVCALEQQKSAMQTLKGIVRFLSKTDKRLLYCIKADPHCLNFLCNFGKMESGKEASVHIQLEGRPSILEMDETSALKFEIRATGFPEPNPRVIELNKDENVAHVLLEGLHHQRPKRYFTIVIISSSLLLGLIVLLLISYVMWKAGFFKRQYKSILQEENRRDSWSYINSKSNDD
α4β7 (Homo sapiens, UniProt P13612+P26010), sequence (P26010 20-798): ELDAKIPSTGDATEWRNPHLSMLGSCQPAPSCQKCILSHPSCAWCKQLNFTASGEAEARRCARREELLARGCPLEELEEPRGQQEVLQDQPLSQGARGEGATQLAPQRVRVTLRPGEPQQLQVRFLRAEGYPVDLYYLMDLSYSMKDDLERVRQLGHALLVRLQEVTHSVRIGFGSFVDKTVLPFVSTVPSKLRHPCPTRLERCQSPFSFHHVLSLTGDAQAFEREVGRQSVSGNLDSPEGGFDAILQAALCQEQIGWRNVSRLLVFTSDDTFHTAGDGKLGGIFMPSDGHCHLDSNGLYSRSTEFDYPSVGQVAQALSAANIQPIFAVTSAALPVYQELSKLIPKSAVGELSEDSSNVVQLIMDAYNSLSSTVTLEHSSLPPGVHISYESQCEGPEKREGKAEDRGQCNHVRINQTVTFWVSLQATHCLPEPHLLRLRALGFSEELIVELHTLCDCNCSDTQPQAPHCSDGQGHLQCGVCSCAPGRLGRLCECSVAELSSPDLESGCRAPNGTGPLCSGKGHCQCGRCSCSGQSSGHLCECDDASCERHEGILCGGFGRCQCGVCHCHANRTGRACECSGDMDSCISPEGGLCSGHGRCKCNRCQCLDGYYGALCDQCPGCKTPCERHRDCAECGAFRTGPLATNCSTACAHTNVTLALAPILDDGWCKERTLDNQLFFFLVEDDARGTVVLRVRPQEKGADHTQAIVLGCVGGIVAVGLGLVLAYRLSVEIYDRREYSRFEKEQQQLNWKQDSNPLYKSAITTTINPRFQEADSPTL

On to `CC(=O)N[C@@H]1C(=O)N(C)[C@@H](CCCNC(=N)N)C(=O)N[C@@H](CO)C(=O)N[C@@H](CC(=O)O)C(=O)N[C@@H](C(C)O)C(=O)N[C@@H](CC(C)C)C(=O)N[C@H](C(=O)N[C@@H](Cc2ccc(C(C)(C)C)cc2)C(=O)N[C@@H](CCC(=O)O)CC(=O)N[C@H](CCCCNC(=O)COCC(=O)NCCCC[C@@H](NC(=O)C[C@H](CCC(=O)O)NC(=O)[C@H](Cc2ccc(C(C)(C)C)cc2)NC(=O)[C@H]2NC(=O)[C@H](CC(C)C)NC(=O)[C@H](C(C)O)NC(=O)[C@H](CC(=O)O)NC(=O)[C@H](CO)NC(=O)[C@H](CCCNC(=N)N)N(C)C(=O)[C@@H](NC(C)=O)C(C)(C)SSC2(C)C)C(N)=O)C(N)=O)C(C)(C)SSC1(C)C` (stereo partly drawn) [Peptide X, [Ac-Pen-(N-Me-Arg)-Ser-Asp-Thr-Leu-Pen-(Phe(4-tBu))-(β-homoGlu)-(D-Lys)]2-DIG] (I: Ac-[Pen][NMeR]SD[Thr(3ξ)]L[Pen][Phe(4-tBu)][β3hE][dK]-NH2 / II: Ac-[Pen][NMeR]SD[Thr(3ξ)]L[Pen][Phe(4-tBu)][β3hE][dK]-NH2; disulfide I:1-I:7, II:1-II:7; linker I:10-II:10 via Diglycolyl), for which the IC50 in test [1] (average, cells isolated from 4 different human PBMC donors, read-out: IC50 (nM), memory T cells, Integrin α4β7, Ligand MAdCAM-1) was determined as 1.3 nM; in test [1] (read-out: IC50 for α4β7 T cells) it was 1 nM; in test [2] (mouse T cell TK1, read-out: IC50 for blocking adhesion of TK1 cell line to MAdCAM-1), 0.5 nM. For `CC(=O)N[C@@H]1C(=O)N(C)[C@@H](CCCNC(=N)N)C(=O)N[C@@H](CO)C(=O)N[C@@H](CC(=O)O)C(=O)N[C@@H]([C@@H](C)O)C(=O)N[C@@H](CC(C)C)C(=O)N[C@H](C(=O)N[C@@H](Cc2c[nH]c3ccccc23)C(=O)N[C@H](CCC(=O)O)C(=O)N[C@H](CCCCNC(=O)COCC(=O)NCCCC[C@@H](NC(=O)[C@@H](CCC(=O)O)NC(=O)[C@H](Cc2c[nH]c3ccccc23)NC(=O)[C@H]2NC(=O)[C@H](CC(C)C)NC(=O)[C@H]([C@@H](C)O)NC(=O)[C@H](CC(=O)O)NC(=O)[C@H](CO)NC(=O)[C@H](CCCNC(=N)N)N(C)C(=O)[C@@H](NC(C)=O)C(C)(C)SSC2(C)C)C(N)=O)C(N)=O)C(C)(C)SSC1(C)C` [compound 68] (I: Ac-[Pen][NMeR]SDTL[Pen]W[dE][dK]-NH2 / II: Ac-[Pen][NMeR]SDTL[Pen]W[dE][dK]-NH2; disulfide I:1-I:7, II:1-II:7; linker I:10-II:10 via Diglycolyl), the IC50 in test [1] (setting [3]) was 100 to 500 nM; in test [2] (Table 3-B, Potency (α4β7), range classes, read-out: α4β7 cell(MU) IC50), less than 10 nM.

Turning to `CC(=O)N[C@@H]1C(=O)N(C)[C@@H](CCCNC(=N)N)C(=O)N[C@@H](CO)C(=O)N[C@@H](CC(=O)O)C(=O)N[C@@H]([C@@H](C)O)C(=O)N[C@@H](CC(C)C)C(=O)N[C@H](C(=O)N[C@@H](Cc2ccc(C(=O)O)cc2)C(=O)N[C@@H](CCC(=O)O)C(=O)N[C@H](CCCCNC(=O)COCC(=O)NCCCC[C@@H](NC(=O)[C@H](CCC(=O)O)NC(=O)[C@H](Cc2ccc(C(=O)O)cc2)NC(=O)[C@H]2NC(=O)[C@H](CC(C)C)NC(=O)[C@H]([C@@H](C)O)NC(=O)[C@H](CC(=O)O)NC(=O)[C@H](CO)NC(=O)[C@H](CCCNC(=N)N)N(C)C(=O)[C@@H](NC(C)=O)C(C)(C)SSC2(C)C)C(N)=O)C(N)=O)C(C)(C)SSC1(C)C` [compound 129] (I: Ac-[Pen][NMeR]SDTL[Pen][Phe(4-COOH)]E[dK]-NH2 / II: Ac-[Pen][NMeR]SDTL[Pen][Phe(4-COOH)]E[dK]-NH2; disulfide I:1-I:7, II:1-II:7; linker I:10-II:10 via Diglycolyl), in test [1] (setting [3]), the IC50 was less than 10 nM. `CC(=O)N[C@@H]1C(=O)N(C)[C@@H](CCCNC(=N)N)C(=O)N[C@@H](CO)C(=O)N[C@@H](CC(=O)O)C(=O)N[C@@H]([C@@H](C)O)C(=O)N[C@@H](CC(C)C)C(=O)N[C@H](C(=O)N[C@@H](Cc2ccc(C(=O)O)cc2)C(=O)N[C@@H](CCC(=O)O)CC(=O)N[C@H](CCCCNC(=O)COCC(=O)NCCCC[C@@H](NC(=O)C[C@H](CCC(=O)O)NC(=O)[C@H](Cc2ccc(C(=O)O)cc2)NC(=O)[C@H]2NC(=O)[C@H](CC(C)C)NC(=O)[C@H]([C@@H](C)O)NC(=O)[C@H](CC(=O)O)NC(=O)[C@H](CO)NC(=O)[C@H](CCCNC(=N)N)N(C)C(=O)[C@@H](NC(C)=O)C(C)(C)SSC2(C)C)C(N)=O)C(N)=O)C(C)(C)SSC1(C)C` [compound 130] (I: Ac-[Pen][NMeR]SDTL[Pen][Phe(4-COOH)][β3hE][dK]-NH2 / II: Ac-[Pen][NMeR]SDTL[Pen][Phe(4-COOH)][β3hE][dK]-NH2; disulfide I:1-I:7, II:1-II:7; linker I:10-II:10 via Diglycolyl): the half-maximal inhibitory concentration (IC50) in test [1] (setting [3]) was less than 10 nM. For the compound `CC(=O)N[C@@H]1C(=O)N(C)[C@@H](CCCNC(=N)N)C(=O)N[C@@H](CO)C(=O)N[C@@H](CC(=O)O)C(=O)N[C@@H]([C@@H](C)O)C(=O)N[C@@H](CC(C)C)C(=O)N[C@H](C(=O)N[C@@H](Cc2cccc3ccccc23)C(=O)N[C@@H](CCC(=O)O)CC(=O)N(C)[C@@H](CCCCNC(=O)COCC(=O)NCCCC[C@@H](C(N)=O)N(C)C(=O)C[C@H](CCC(=O)O)NC(=O)[C@H](Cc2cccc3ccccc23)NC(=O)[C@H]2NC(=O)[C@H](CC(C)C)NC(=O)[C@H]([C@@H](C)O)NC(=O)[C@H](CC(=O)O)NC(=O)[C@H](CO)NC(=O)[C@H](CCCNC(=N)N)N(C)C(=O)[C@@H](NC(C)=O)C(C)(C)SSC2(C)C)C(N)=O)C(C)(C)SSC1(C)C` [compound 142] (I: Ac-[Pen][NMeR]SDTL[Pen][1Nal][β3hE][NMeK]-NH2 / II: Ac-[Pen][NMeR]SDTL[Pen][1Nal][β3hE][NMeK]-NH2; disulfide I:1-I:7, II:1-II:7; linker I:10-II:10 via Diglycolyl), in test [1] (setting [3]), the IC50 was in the range of 50 to 100 nM.

Turning to `CC(=O)N[C@H]1CSSC(C)(C)[C@@H](C(=O)N[C@@H](Cc2c[nH]c3ccccc23)C(=O)N[C@H](CCCCNC(=O)COCC(=O)NCCCC[C@@H](NC(=O)[C@H](Cc2c[nH]c3ccccc23)NC(=O)[C@H]2NC(=O)[C@H](CC(C)C)NC(=O)[C@H]([C@@H](C)O)NC(=O)[C@H](CC(=O)O)NC(=O)[C@H](CO)NC(=O)[C@H](CCCNC(=N)N)N(C)C(=O)[C@@H](NC(C)=O)CSSC2(C)C)C(N)=O)C(N)=O)NC(=O)[C@H](CC(C)C)NC(=O)[C@H]([C@@H](C)O)NC(=O)[C@H](CC(=O)O)NC(=O)[C@H](CO)NC(=O)[C@H](CCCNC(=N)N)N(C)C1=O` [compound 204, (Ac-C-N-Me-R-S-D-T-L-Pen-W-k-NH2)2-DIG] (I: Ac-C[NMeR]SDTL[Pen]W[dK]-NH2 / II: Ac-C[NMeR]SDTL[Pen]W[dK]-NH2; disulfide I:1-I:7, II:1-II:7 (inferred); linker I:9-II:9 via Diglycolyl (inferred)), the IC50 in test [1] (Table 4-B, read-out: Cell Adhesion PBMC IC50) came out at 1280 nM. In the case of `CC(=O)N[C@@H]1C(=O)N(C)[C@@H](CCCNC(=N)N)C(=O)N[C@@H](CO)C(=O)N[C@@H](CC(=O)O)C(=O)N[C@@H]([C@@H](C)O)C(=O)N[C@@H](CC(C)C)C(=O)N[C@H](C(=O)N[C@@H](Cc2c[nH]c3ccccc23)C(=O)N[C@@H](CCC(=O)O)C(=O)N[C@H](CCCCNC(=O)COCC(=O)NCCCC[C@@H](NC(=O)[C@H](CCC(=O)O)NC(=O)[C@H](Cc2c[nH]c3ccccc23)NC(=O)[C@H]2NC(=O)[C@H](CC(C)C)NC(=O)[C@H]([C@@H](C)O)NC(=O)[C@H](CC(=O)O)NC(=O)[C@H](CO)NC(=O)[C@H](CCCNC(=N)N)N(C)C(=O)[C@@H](NC(C)=O)C(C)(C)SSC2(C)C)C(N)=O)C(N)=O)C(C)(C)SSC1(C)C` [compound 217, (Ac-Pen-N-Me-R-S-D-T-L-Pen-W-E-k-NH2)2-DIG] (I: Ac-[Pen][NMeR]SDTL[Pen]WE[dK]-NH2 / II: Ac-[Pen][NMeR]SDTL[Pen]WE[dK]-NH2; disulfide I:1-I:7, II:1-II:7 (inferred); linker I:10-II:10 via Diglycolyl (inferred)), the IC50 in test [2] (Table 4-B, read-out: Cell Adhesion α4β7 Mouse IC50) amounted to 1.2 nM.
